From article PMC10439230 (Scientific Reports, 2023)

Legend:
MDA-MB-231 cells [1] = experiment: Cell morphology of treated cells (microscopy); assay type: cell-based, human; settings: MDA-MB-231, 25–50 µM
Experimental: (§1) Mode of cell death induced by compound 4l was explored using MDA-MB-231 cells by observing change in cell morphology and flow cytometric analysis of annexin V/7-AAD double stained cells. […] Accidental cell death necrosis is typically indicated by the immediate production of bubbles on the cell surface after treatment. […] Additionally, vacuole accumulation was not observed in the treated cells until 48 h after treatment (Fig. 3a). Taken together, we hypothesized that 4l-induced cell death in MDA-MB-231 cells was not processed through necrosis or vacuole-presenting regulated cell death such as autophagy.

phospho-EGFR (Y845) = experiment: Western blot analysis of EGFR phosphorylation; assay type: cell-based, human; settings: MDA-MB-231 cells, 25–50 µM, 24 h
Experimental: (§2) We further investigated targets of compound 4l on cell survival signaling pathways including EGFR, FAK, Akt, and ERK in MDA-MB-231 cells. After treatment with 4l at concentrations of 25–50 µM for 24 h, activation (phosphorylation) of the signaling pathways was determined by using western blot analysis.
(§3) MDA-MB-231 cells in 6-well culture plates (1 × 10^6 cells/well) were treated with tested compounds for 24 h. Then the cells were harvested and western blot analysis was used to detect alteration of targeted proteins in the treated cells, as previously described. Briefly, the cells in 6-well culture plates were scraped in RIPA cell lysis buffer supplemented with protease/phosphatase inhibitor cocktail before being lysed by sonication. Cell lysates were centrifuged at 12,000×g for 5 min, at 4 °C, to remove cell debris. Total proteins (20 μg) in the cell lysates were separated by SDS-PAGE and blotted to PVDF membranes. The membranes were blocked with 3% (w/v) BSA and incubated overnight at 4 °C with primary antibodies specific to the following proteins: EGFR, phospho-EGFR (Y845), FAK, phospho-FAK (Y397), Akt, phospho-Akt (S473), ERK, and phospho-ERK (T202/Y204). […] Bands of specific proteins were detected by using SuperSignal™ ECL substrates and visualized on X-ray films.

phospho-ERK (T202/Y204) = experiment: Western blot analysis of ERK phosphorylation; assay type: cell-based, human; settings: MDA-MB-231 cells, 25–50 µM, 24 h
Experimental: as §2, §3

[2] = test system: MRC-5 normal embryonic lung fibroblast cell line; experiment: Cytotoxic activity assay (MTT), normal cells; assay type: cell-based; settings: Homo sapiens, MRC5, 48 h exposure, read-out: Cell lines, IC50 (μM) MRC-5
Procedure, shortened: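 MTT readout, A550 (ref 650 nm) after DMSO solubilisation; cells 5000–20,000/well, 24 h pre-growth, 48 h compound exposure, 37 °C/5% CO2. MTT incubation 2.5–4 h.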

phospho-Akt (S473) = experiment: Western blot analysis of Akt phosphorylation; assay type: cell-based, human; settings: MDA-MB-231 cells, 25–50 µM, 24 h
Experimental: as §2, §3

[3] = test system: MOLT-3 (T cell acute lymphoblastic leukemia); experiment: Cytotoxic activity assay (XTT); assay type: cell-based, human
[4] = test system: HL-60 (acute promyelocytic leukemia); experiment: Cytotoxic activity assay (XTT); assay type: cell-based, human
Procedure, shortened: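 HL-60 human acute promyelocytic leukemia cells, handled as suspension cells, were plated in 96-well plates at 75 µL and 5000–20,000 cells per well. They were kept for 30 min at 37 °C in 95% humidity and 5% CO2. An equal volume of medium carrying test compound was then added for 48 h. Viability was measured by XTT: 75 µL reagent per well, 4 h incubation, and orange formazan absorbance read at 492 nm against a 690 nm reference.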

MDA-MB-231 cells [5] = experiment: Cell death analysis, annexin V/7-AAD double staining, flow cytometry; assay type: cell-based, human
Experimental: as §1
Briefly, MDA-MB-231 cells were seeded into 6-well culture plates at 1 × 10^6 cells/well and left in a CO2 incubator for 24 h. Subsequently, the cells were treated with tested compounds for 24–48 h. DMSO was used as a vehicle and its final concentration was kept at 0.2% (v/v) throughout the study. The treated cells were harvested by trypsinization and subjected to annexin V/7-AAD double staining using Muse® Annexin V & Dead Cell Kit as previously described. The stained cells were analyzed by flow cytometric technique using Muse® Cell Analyzer. Population of annexin V-positive cells was defined as early apoptotic cells, and the population positive for both annexin V and 7-AAD was defined as late apoptotic cells. The sequential events of increasing early and late apoptotic cell populations over time is a characteristic of apoptotic cell death.

[6] = test system: H69AR (multidrug-resistant small cell lung carcinoma); experiment: Cytotoxic activity assay (MTT); assay type: cell-based, human
Procedure, shortened: (§4)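 48 h continuous compound exposure in adherent cancer cell lines, seeded 5000–20,000 cells/well; endpoint by MTT colorimetry at 550 nm.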

[7] = test system: A549 (lung adenocarcinoma); experiment: Cytotoxic activity assay (MTT); assay type: cell-based, human
Procedure, shortened: as §4

[8] = test system: T-47D (hormone-dependent breast cancer); experiment: Cytotoxic activity assay (MTT); assay type: cell-based, human
Procedure, shortened: as §4

[9] = test system: HepG2 (hepatocellular carcinoma); experiment: Cytotoxic activity assay (MTT); assay type: cell-based, human
Procedure, shortened: as §4

[10] = test system: HeLa (cervical carcinoma); experiment: Cytotoxic activity assay (MTT); assay type: cell-based, human
Procedure, shortened: as §4

[11] = test system: HuCCA-1 (cholangiocarcinoma derived from a patient); experiment: Cytotoxic activity assay (MTT); assay type: cell-based, human
Procedure, shortened: as §4

[12] = test system: MDA-MB-231 (triple-negative breast cancer); experiment: Cytotoxic activity assay (MTT); assay type: cell-based, human
Procedure, shortened: as §4

phospho-FAK (Y397) = experiment: Western blot analysis of FAK phosphorylation; assay type: cell-based, human; settings: MDA-MB-231 cells, 25–50 µM, 24 h
Experimental: as §2, §3

[13] = SI = IC50 normal cell (MRC-5)/ IC50 cancer cell

In the case of `C=C1CC[C@H]2C(C)(C)CCC[C@]2(C)[C@H]1CC/C(C)=C/C(=O)NOC1CCCCO1` (stereo partly drawn) [Compound 4l, (E)-3-Methyl-N-((tetrahydro-2H-pyran-2-yl)oxy)-5-((1S,4aS,8aS)-5,5,8a-trimethyl-2-methylenedecahydronaphthalen-1-yl)pent-2-enamide], the “necrosis (immediate formation of bubbles on cell surface)” value (MDA-MB-231 cells [1]; 24–48 h) is reported as “did not induce necrosis”, the vacuole accumulation (MDA-MB-231 cells [1]; until 48 h after treatment) is reported as “not observed” and the “phosphorylation of EGFR” value (phospho-EGFR (Y845)) is reported as “not affected”. For the same compound, the “phosphorylation of ERK” value (phospho-ERK (T202/Y204)) was “not affected”, the IC50 [2] was 40.3 ± 2.11 µM and the “phosphorylation of Akt” value (phospho-Akt (S473)) was “not affected”. The IC50 ([3]; Homo sapiens, MOLT-3, 48 h exposure, XTT, read-out: Cell lines, IC50 (μM) MOLT-3) was 26.2 ± 1.76 µM, the “Selectivity Index (SI) values MOLT-3” value [3, 13] was 1.5 and the IC50 ([4]; Homo sapiens, HL-60, 48 h exposure, XTT, read-out: Cell lines, IC50 (μM) HL-60) was 21.4 ± 0.31 µM. For the same compound, the “Selectivity Index (SI) values HL-60” value [4, 13] was 1.9, the “late apoptotic cell population” value (MDA-MB-231 cells [5]; MDA-MB-231, 25–50 µM, 48 h, control 5.8%, mean of three experiments (Fig. 3c)) was 19.0–26.3% and the “mode of cell death” value (MDA-MB-231 cells [5]; MDA-MB-231 cells, 24–48 h treatment) was “non-apoptotic regulated cell death”. For the same compound, the IC50 ([6]; Homo sapiens, H69AR, 48 h exposure, MTT, read-out: Cell lines, IC50 (μM) H69AR) was 94.6 ± 1.67 µM, the “Selectivity Index (SI) values H69AR” value [6, 13] was 0.4 and the IC50 ([7]; Homo sapiens, A549, 48 h exposure, MTT, read-out: Cell lines, IC50 (μM) A549) was 57.7 ± 1.2 µM. For the same compound, the “Selectivity Index (SI) values A549” value [7, 13] was 0.7, the IC50 ([8]; Homo sapiens, T47D, 48 h exposure, MTT, read-out: Cell lines, IC50 (μM) T47-D) was 66.1 ± 6.39 µM and the “Selectivity Index (SI) values T47-D” value [8, 13] was 0.6. For the same compound, the IC50 ([9]; Homo sapiens, HepG2, 48 h exposure, MTT, read-out: Cell lines, IC50 (μM) HepG2) was 73.5 ± 2.15 µM, the “Selectivity Index (SI) values HepG2” value [9, 13] was 0.5 and the IC50 ([10]; Homo sapiens, 48 h exposure, MTT, read-out: Cell lines, IC50 (μM) HeLa) was 26.44 ± 0.04 µM. The “Selectivity Index (SI) values HeLa” value [10, 13] was 1.5, the IC50 ([11]; Homo sapiens, HuCC-A1, 48 h exposure, MTT, read-out: Cell lines, IC50 (μM) HuCCA-1) was 58.67 ± 0.13 µM and the “Selectivity Index (SI) values HuCCA-1” value [11, 13] was 0.7. For the same compound, the IC50 ([12]; Homo sapiens, MDA-MB-231, 48 h exposure, MTT, read-out: Cell lines, IC50 (μM) MDA-MB-231) was 13.73 ± 0.04 µM, the “Selectivity Index (SI) values MDA-MB-231” value [12, 13] was 2.9 and the “phosphorylation of FAK protein” value (phospho-FAK (Y397)) was “selectively reduced”.
